Experimental findings from PubChem BioAssay AID1996 are described below.

Converted amounts (≈) assume the structure as drawn.

Broadly, the solubility (kinetic) is solubility judged after dilution from a stock solution rather than from solid.

For the data set the following is noted: buffer; pH 7.4; 200.0 µM.
As to `CCc1nc(NCCO)c(C#N)c2c1CSC(C)(C)C2`, the solubility (kinetic) came out at 41.2 µg/mL (≈ 141 µM).

`O=C(Nc1ccncc1)C1CC(=O)N(Cc2ccccc2)C1` (configuration not stated): the solubility (kinetic) is over 44.3 µg/mL.

As to `CCN(CC)C(=O)CCS(=O)(=O)c1cccc2nonc12`, the solubility (kinetic) came out at 45.2 µg/mL (≈ 145 µM).

In turn, `O=C(/C=C/c1ccc(Cl)cc1)Nc1ccc(N2CCOCC2)cc1` showed a solubility (kinetic) of under 0.4 µg/mL.

`CC(C)(C)NC(=O)CSc1nc(N)cc(=O)[nH]1` returned a kinetic solubility of over 38.4 µg/mL.

In turn, `Cc1cc(NC(=O)CSCC(=O)N2CCN(c3ccccc3)CC2)no1` showed a kinetic solubility of over 56.2 µg/mL.

In turn, `CN1CN(c2cccc([N+](=O)[O-])c2)CN=C1N[N+](=O)[O-]` came in with a kinetic solubility of over 42 µg/mL.

As for `Cc1cc(C(=O)Nc2cccc(C)c2C)c2ccccc2n1`, the kinetic solubility worked out at 40.1 µg/mL (≈ 138 µM).

Take `Cc1ccc(S(=O)(=O)n2c(C)nc3cc(C)ccc32)cc1`: the kinetic solubility is 32 µg/mL (≈ 107 µM).

With `COc1ccc(C(=O)N/N=C\c2ccoc2)cc1`, the kinetic solubility was over 36.6 µg/mL.

On to `CCc1noc(C)c1C(=O)Nc1nc(-c2cccs2)cs1`, for which the kinetic solubility was determined as 19.3 µg/mL (≈ 60.4 µM).

`O=C(NC(=S)Nc1ccccc1Cl)c1ccco1` gave a kinetic solubility of 2.5 µg/mL (≈ 8.91 µM).

With `O=S(=O)(Cc1noc(-c2ccccc2Cl)n1)c1ccccn1`, the solubility (kinetic) was determined as 37.2 µg/mL (≈ 111 µM).

The molecule `Cc1cccc(-n2c(SCC(N)=O)nnc2-c2ccco2)c1` showed a solubility (kinetic) of over 47.2 µg/mL.

Consider `O=C(NCCc1ccccc1Cl)C1CC(=O)N(C2CCCCC2)C1` (configuration not stated), for which the kinetic solubility is over 52.3 µg/mL.

Turning to `O=C(COC(=O)COc1ccccc1)Nc1ccc(Cl)cn1`, the solubility (kinetic) worked out at 13.3 µg/mL (≈ 41.5 µM).

The molecule `CCOC(=O)c1nc2c(ccc3ccccc32)cc1C` came in with a solubility (kinetic) of under 0.6 µg/mL.

In the case of `COc1ccc(CCNC(=O)/C=C/c2ccco2)cc1`, the kinetic solubility was 38.9 µg/mL (≈ 143 µM).

`Cc1c(-c2ccncc2)oc2ccc(Br)cc2c1=O` displayed a kinetic solubility of under 0.7 µg/mL.

Consider `CC(=O)c1ccc(NC(=S)N2CCCC2)cc1`, for which the solubility (kinetic) was found to be 35.4 µg/mL (≈ 143 µM).

In turn, `Cc1cc(C)c(C)c(S(=O)(=O)N2CCN(C(=O)c3cc(S(=O)(=O)N4CCOCC4)ccc3F)CC2)c1C` registered a solubility (kinetic) of 12.7 µg/mL (≈ 22.9 µM).

Consider `Cc1cc(C)cc(N2CC(O)Cn3c2nc2c3c(=O)[nH]c(=O)n2C)c1` (configuration not stated), for which the kinetic solubility stood at 34.3 µg/mL (≈ 100 µM).

`Cc1cc(C)[n+](-c2ccc(Oc3ccccc3)c(S(=O)(=O)[O-])c2)[nH]1` yielded a solubility (kinetic) of over 51.7 µg/mL.

As to `O=C(COC(=O)c1ccc(Cl)nc1)Nc1ccc(N2CCCCC2)cc1`, the kinetic solubility came out at 10.9 µg/mL (≈ 29.2 µM).

For `Cc1cccc(NC(=O)CCCN2C(=S)NC(C)(C)CC2C)c1C` (configuration not stated), the kinetic solubility is over 52.1 µg/mL.

In the case of `Cc1ccccc1CSCCC(=O)NCCc1ccccc1`, the solubility (kinetic) was 9.8 µg/mL (≈ 31.3 µM).

On to `CC12CN3CC(C)(CN(C1)C3c1ccccc1)C2O` (configuration not stated), for which the solubility (kinetic) was over 38.8 µg/mL.

`Cc1ccc(S(=O)(=O)N2CCC[C@H]2C(=O)Nc2ccccc2C)cc1`: the kinetic solubility was over 53.8 µg/mL.

`O=C(NCCCCc1ccccc1)Nc1ccc(F)cc1F` displayed a solubility (kinetic) of 0.3 µg/mL (≈ 0.986 µM).

Consider `CC(=O)c1ccc(O)c(CSC2=NCCS2)c1`, for which the kinetic solubility was 35.2 µg/mL (≈ 132 µM).

`COc1ccccc1C(=O)C1CCCN(Cc2cnc(C)s2)C1` (configuration not stated) came in with a kinetic solubility of over 49.6 µg/mL.

Molecule `CC(C)(C)NCC(O)COc1cccc2c1C[C@H](O)[C@H](O)C2` (some centres not stated) had a solubility (kinetic) of over 46.4 µg/mL.

`C=CCOc1ccc(CNCC2CCCO2)cc1.Cl` (configuration not stated) registered a solubility (kinetic) of over 42.6 µg/mL.

The molecule `CC(OC(=O)c1ccncc1)C(=O)Nc1cccc([N+](=O)[O-])c1` (configuration not stated) had a kinetic solubility of over 47.3 µg/mL.

`COc1ccc(-c2cc(C(=O)N3CCCCC3)c3ccccc3n2)cc1OC` showed a solubility (kinetic) of 51.6 µg/mL (≈ 137 µM).

In turn, `COc1ccc2nc(C)cc(Nc3ccc(C)cc3)c2c1.Cl` yielded a solubility (kinetic) of 30.5 µg/mL.

`O=C(NCCCn1ccnc1)Nc1ccc2c(c1)OCO2` had a kinetic solubility of over 43.2 µg/mL.

In turn, `O=C(NCCCNC(=O)c1ccc(F)cc1)c1ccc(F)cc1` yielded a kinetic solubility of 30.9 µg/mL (≈ 97.1 µM).

`CCCc1nc2sc3c(=O)[nH]cnc3c2c2c1CCCC2` showed a solubility (kinetic) of 0.4 µg/mL (≈ 1.34 µM).

The molecule `NC(=O)c1cc2c(s1)-c1cc(Cl)ccc1SC2` registered a solubility (kinetic) of 0.8 µg/mL (≈ 2.84 µM).

Consider `C[N+]1(C)C2CCC1CC(OC(=O)c1ccccc1)C2.[Br-]` (configuration not stated), for which the kinetic solubility was over 51 µg/mL.

In turn, `COc1ccc2[nH]c(C(=O)NCCN3CCCCC3)cc2c1` returned a solubility (kinetic) of 39.7 µg/mL (≈ 132 µM).

`O=C(COC(=O)c1ccccc1Br)Nc1ccccc1F` gave a solubility (kinetic) of 5.4 µg/mL (≈ 15.3 µM).

As to `Cc1c(Cl)cccc1NC(=O)NCCCN1CCCC1=O`, the kinetic solubility is over 46.5 µg/mL.

`COc1ccc2nc(/N=C/c3cccc(OC)c3O)sc2c1` gave a solubility (kinetic) of over 47.2 µg/mL.

The molecule `CC1(C)C2([N+](=O)[O-])CN3CC1([N+](=O)[O-])CN(C2)C3c1ccc(O)c(O)c1` (configuration not stated) had a kinetic solubility of 3.5 µg/mL (≈ 9.61 µM).

Turning to `Cc1cc(/C=C(\C#N)C(=O)O)c(C)n1CC1CCCO1` (configuration not stated), the solubility (kinetic) was over 41.1 µg/mL.

For the molecule `Cl.O=[N+]([O-])c1ccc(OCC(O)CNC2CCCC2)cc1` (configuration not stated), the kinetic solubility is over 47.5 µg/mL.

`Cc1ccc(Nc2nc(Cl)nc(NC(C)(C)C)n2)cc1`: the kinetic solubility is 3.8 µg/mL (≈ 13 µM).

`CCOC(=O)c1ccc(NC(=O)c2cccnc2)cc1` had a kinetic solubility of over 40.5 µg/mL.

`N#CCSc1nc2sccc2c(=O)n1-c1ccccc1` showed a solubility (kinetic) of 37 µg/mL (≈ 124 µM).

`COc1ccccc1OCCNC(=O)CC(NC(C)=O)c1ccccc1` (configuration not stated) registered a kinetic solubility of 53.4 µg/mL (≈ 150 µM).
